Converted amounts (≈) assume the structure as drawn.
Tests used:
[1] = test system: Human immunodeficiency virus 1; assay: Resistance index, ratio of EC50 for antiviral activity against HIV1 3B infected in human MT4 cells grown under 30 passages in presence of 4-[[4-[[4-(4-cyano-2,6-dimethylphenoxy)thieno[3,2-d]pyrimidin-2-yl]amino]-1-piperidyl]methyl]benzenesulfonamide to EC50 for antiviral activity against HIV1 3B infected in human MT4 cells; assay type: functional
[2] = test system: Human immunodeficiency virus 1; assay: Resistance index, ratio of EC50 for antiviral activity against HIV1 3B infected in human MT4 cells grown under 30 passages in presence of 4-[[4-[[4-[4-[2-cyanovinyl]-2,6-dimethylphenoxy]thieno[3,2-d]pyrimidin-2-yl]amino]-1-piperidyl]methyl]benzenesulfonamide to EC50 for antiviral activity against HIV1 3B infected in human MT4 cells; assay type: functional
[3] = test system: Human immunodeficiency virus 1; assay: Antiviral activity against HIV1 3B infected in human MT4 cells grown under 30 passages in presence of 4-[[4-[[4-[4-[2-cyanovinyl]-2,6-dimethylphenoxy]thieno[3,2-d]pyrimidin-2-yl]amino]-1-piperidyl]methyl]benzenesulfonamide assessed as protection against virus-induced cytopathic effect incubated for 5 days by MTT assay; assay type: functional, organism-based; conditions: Human immunodeficiency virus 1, 3B, MT4, 120 h
[4] = test system: Human immunodeficiency virus 1; assay: Antiviral activity against HIV1 3B infected in human MT4 cells grown under 30 passages in presence of 4-[[4-[[4-(4-cyano-2,6-dimethylphenoxy)thieno[3,2-d]pyrimidin-2-yl]amino]-1-piperidyl]methyl]benzenesulfonamide assessed as protection against virus-induced cytopathic effect incubated for 5 days by MTT assay; assay type: functional, organism-based; conditions: Human immunodeficiency virus 1, 3B, MT4, 120 h
[5] = test system: Human immunodeficiency virus 1; assay: Antiviral activity against HIV1 3B infected in human MT4 cells grown under 30 passages in presence of (E)-4-((4-((4-(4-(2-Cyanovinyl)-2,6-dimethylphenoxy)thieno[2,3- d]pyrimidin-2-yl)amino)piperidin-1-yl)methyl)benzenesulfonamide assessed as protection against virus-induced cytopathic effect incubated for 5 days by MTT assay; assay type: functional, organism-based; conditions: Human immunodeficiency virus 1, 3B, MT4, 120 h
[6] = test system: Human immunodeficiency virus 1; assay: Resistance index, ratio of EC50 for antiviral activity against HIV1 3B infected in human MT4 cells grown under 30 passages in presence of (E)-4-((4-((4-(4-(2-Cyanovinyl)-2,6-dimethylphenoxy)thieno[2,3- d]pyrimidin-2-yl)amino)piperidin-1-yl)methyl)benzenesulfonamide to EC50 for antiviral activity against HIV1 3B infected in human MT4 cells; assay type: functional
[7] = test system: Human immunodeficiency virus 1; assay: Antiviral activity against HIV1 3B infected in human MT4 cells grown under 30 passages in absence of test compound assessed as protection against virus-induced cytopathic effect incubated for 5 days by MTT assay; assay type: functional, organism-based; conditions: Human immunodeficiency virus 1, 3B, MT4, 120 h
[8] = molecular target: Human immunodeficiency virus type 1 reverse transcriptase (Human immunodeficiency virus 1, UniProt Q72547, K103N/Y181C); assay: Inhibition of HIV1 RT K103N/Y181C mutant in presence of reconstituted template and viral nucleotides [digoxigenin (DIG)-dUTP, biotin-dUTP and dTTP] incubated for 1 hr by ELISA method
[9] = molecular target: Human immunodeficiency virus type 1 reverse transcriptase (Human immunodeficiency virus 1, UniProt Q72547, Y181C); assay: Inhibition of HIV1 RT Y181C mutant in presence of reconstituted template and viral nucleotides [digoxigenin (DIG)-dUTP, biotin-dUTP and dTTP] incubated for 1 hr by ELISA method
[10] = molecular target: Human immunodeficiency virus type 1 reverse transcriptase (Human immunodeficiency virus 1, UniProt Q72547, Y188L); assay: Inhibition of HIV1 RT Y188L mutant in presence of reconstituted template and viral nucleotides [digoxigenin (DIG)-dUTP, biotin-dUTP and dTTP] incubated for 1 hr by ELISA method
[11] = molecular target: Human immunodeficiency virus type 1 reverse transcriptase (Human immunodeficiency virus 1, UniProt Q72547); assay: Inhibition of HIV1 RT in presence of reconstituted template and viral nucleotides [digoxigenin (DIG)-dUTP, biotin-dUTP and dTTP] incubated for 1 hr by ELISA method
[12] = molecular target: Human immunodeficiency virus type 1 reverse transcriptase (Human immunodeficiency virus 1, UniProt Q72547, L100I); assay: Inhibition of HIV1 RT L100I mutant in presence of reconstituted template and viral nucleotides [digoxigenin (DIG)-dUTP, biotin-dUTP and dTTP] incubated for 1 hr by ELISA method
[13] = molecular target: Human immunodeficiency virus type 1 reverse transcriptase (Human immunodeficiency virus 1, UniProt Q72547, E138K); assay: Inhibition of HIV1 RT E138K mutant in presence of reconstituted template and viral nucleotides [digoxigenin (DIG)-dUTP, biotin-dUTP and dTTP] incubated for 1 hr by ELISA method
[14] = molecular target: Human immunodeficiency virus type 1 reverse transcriptase (Human immunodeficiency virus 1, UniProt Q72547, K103N); assay: Inhibition of HIV1 RT K103N mutant in presence of reconstituted template and viral nucleotides [digoxigenin (DIG)-dUTP, biotin-dUTP and dTTP] incubated for 1 hr by ELISA method
[15] = test system: Human immunodeficiency virus 1; assay: Antiviral activity against HIV1 expressing RT K103N mutant infected in human MT4 cells assessed as protection against virus-induced cytopathic effect incubated for 5 days by MTT assay; assay type: functional, organism-based; conditions: Human immunodeficiency virus 1, MT4, 120 h
[16] = test system: Human immunodeficiency virus 1; assay: Antiviral activity against HIV1 RES056 infected in human MT4 cells assessed as protection against virus-induced cytopathic effect incubated for 5 days by MTT assay; assay type: functional, organism-based; conditions: Human immunodeficiency virus 1, RES056, MT4, 120 h
[17] = test system: Human immunodeficiency virus 1; assay: Antiviral activity against HIV1 expressing RT L100I mutant infected in human MT4 cells assessed as protection against virus-induced cytopathic effect incubated for 5 days by MTT assay; assay type: functional, organism-based; conditions: Human immunodeficiency virus 1, MT4, 120 h
[18] = test system: Human immunodeficiency virus 1; assay: Antiviral activity against HIV1 expressing RT Y188L mutant infected in human MT4 cells assessed as protection against virus-induced cytopathic effect incubated for 5 days by MTT assay; assay type: functional, organism-based; conditions: Human immunodeficiency virus 1, MT4, 120 h
[19] = test system: Human immunodeficiency virus 1; assay: Antiviral activity against HIV1 expressing RT Y181C mutant infected in human MT4 cells assessed as protection against virus-induced cytopathic effect incubated for 5 days by MTT assay; assay type: functional, organism-based; conditions: Human immunodeficiency virus 1, MT4, 120 h
[20] = test system: Human immunodeficiency virus 1; assay: Antiviral activity against HIV1 expressing RT E138K mutant infected in human MT4 cells assessed as protection against virus-induced cytopathic effect incubated for 5 days by MTT assay; assay type: functional, organism-based; conditions: Human immunodeficiency virus 1, MT4, 120 h
[21] = Toxicity in Kunming mouse assessed as induction of abnormal behaviors at 2000 mg/kg, ig measured 2 hrs post dose and then measured every 48 hrs for 14 days; assay type: organism-based; conditions: in vivo, po
[22] = Toxicity in Kunming mouse assessed as induction of mortality at 2000 mg/kg, ig measured 2 hrs post dose and then measured every 48 hrs for 14 days; assay type: organism-based; conditions: in vivo, po
[23] = Toxicity in Kunming mouse assessed as induction of toxic symptoms at 2000 mg/kg, ig measured 2 hrs post dose and then measured every 48 hrs for 14 days; assay type: organism-based; conditions: in vivo, po
[24] = test system: Human immunodeficiency virus 1; assay: Antiviral activity against HIV1 3B infected in human MT4 cells assessed as protection against virus-induced cytopathic effect incubated for 5 days by MTT assay; assay type: functional, organism-based; conditions: Human immunodeficiency virus 1, 3B, MT4, 120 h
[25] = test system: Human immunodeficiency virus 1; assay type: functional, organism-based; conditions: Human immunodeficiency virus 1, MT4, 120 h
[26] = Toxicity in Kunming mouse assessed as induction of body weight changes at 2000 mg/kg, ig measured 2 hrs post dose and then measured every 48 hrs for 14 days; assay type: organism-based; conditions: in vivo, po
[27] = Solubility of the compound in pH 2.0 buffer by HPLC analysis
[28] = Solubility of the compound in pH 7.4 buffer by HPLC analysis
[29] = Solubility of the compound in pH 7.0 buffer by HPLC analysis
[30] = Aqueous solubility of the compound in pH 7 buffer; assay type: physicochemical
[31] = Selectivity index, ratio of CC50 for human MT4 cells to EC50 for antiviral activity against HIV1 RES056 infected in human MT4 cells
[32] = test system: MT4; assay: Cytotoxicity against human MT4 cells assessed as reduction in cell viability incubated for 5 days by MTT assay; assay type: functional; conditions: MT4, 120 h
[33] = Selectivity index, ratio of CC50 for human MT4 cells to EC50 for antiviral activity against HIV1 3B infected in human MT4 cells

SMILES	EC50 [3] [nM]	EC50 [4] [nM]	EC50 [5] [µM]	EC50 [7] [nM]	EC50 [15] [nM]	EC50 [16] [nM]	EC50 [17] [nM]	EC50 [18] [nM]	EC50 [19] [nM]	EC50 [20] [nM]	EC50 [24] [nM]	EC50 [25] [nM]	selectivity ratio [31]	CC50 [32] [µM]	selectivity ratio [33]	also measured
Cc1ccnc2c1NC(=O)c1cccnc1N2C1CC1 [NEVIRAPINE]	> 9510	> 9510	3.76	87.9	–	–	–	–	–	–	–	–	–	–	–	Ratio EC50 [1]: >108; Ratio EC50 [2]: >108; Ratio EC50 [6]: 43
Cc1cc(C#N)cc(C)c1Oc1nc(NC2CCN(Cc3ccc(S(N)(=O)=O)cc3)CC2)nc2ccsc12	> 36400	> 36400	> 36.4	1.1	–	–	–	–	–	–	–	–	–	–	–	IC50 [8]: 71 nM; IC50 [9]: 126 nM; IC50 [10]: 215 nM; IC50 [11]: 76 nM; IC50 [12]: 92 nM; IC50 [13]: 200 nM; IC50 [14]: 162 nM
Cc1cc(/C=C/C#N)cc(C)c1Oc1nc(NC2CCN(Cc3ccc(S(N)(=O)=O)cc3)CC2)nc2sccc12	870	1780	3.6	4.1	2.34	6.45	2.05	7.59	6.57	6.7	3.24	4.81	–	–	–	IC50 [8]: 120 nM; Activity [21]: Non-Toxic; Activity [22]: Non-Toxic; Activity [23]: Non-Toxic; IC50 [9]: 141 nM; IC50 [10]: 452 nM; IC50 [11]: 114 nM; IC50 [13]: 374 nM; Activity [26]: Non-Toxic; IC50 [14]: 222 nM
Cc1cc(C#N)cc(C)c1Oc1nc(Nc2ccc(C#N)cc2)nc(N)c1Br [ETRAVIRINE]	370	530	1.24	–	2.35	–	5.38	20.5	15.7	–	–	–	–	–	–	solubility [27]: 127 µg/mL (≈ 292 µM); solubility [28]: < 1 µg/mL; solubility [29]: < 1 µg/mL; solubility [30]: < 1 µg/mL
Cc1cc(/C=C/C#N)cc(C)c1Oc1nc(NC2CCN(Cc3cccc(C(N)=O)c3)CC2)nc2sccc12	–	–	–	–	5.45	62	5.75	39.5	17.7	18.4	5.73	12.2	64	3.95	689	–
C[C@H](Cn1cnc2c(N)ncnc21)OCP(=O)(O)O [TENOFOVIR ANHYDROUS]	3310	3760	2.17	4140	–	–	–	–	–	–	–	–	–	–	–	Ratio EC50 [1]: 0.9; Ratio EC50 [2]: 0.8; Ratio EC50 [6]: 0.5
Cc1cc(/C=C/C#N)cc(C)c1Nc1ccnc(Nc2ccc(C#N)cc2)n1 [RILPIVIRINE]	60	90	> 3.87	–	–	–	–	–	–	–	–	–	–	–	–	solubility [27]: 103 µg/mL (≈ 281 µM); solubility [28]: < 1 µg/mL; solubility [29]: < 1 µg/mL
CCOC(=O)c1ccc(CN2CCC(Nc3nc(Oc4c(C)cc(/C=C/C#N)cc4C)c4ccsc4n3)CC2)cc1	–	–	–	–	12	153	19.4	120	30.9	33.1	10.6	32.1	728	111	10500	–
Cc1cc(/C=C/C#N)cc(C)c1Oc1nc(NC2CCN(Cc3ccc(C#N)cc3)CC2)nc2sccc12	–	–	–	–	17.3	138	21.3	117	32.8	36.3	12.4	32.6	56	7.74	625	–
Cc1cn([C@H]2C[C@H](N=[N+]=[N-])[C@@H](CO)O2)c(=O)[nH]c1=O [ZIDOVUDINE]	4.9	5.1	0.001	12.7	–	–	–	–	–	–	–	–	–	–	–	Ratio EC50 [1]: 0.4; Ratio EC50 [2]: 0.4; Ratio EC50 [6]: 0.1
Cc1cc(/C=C/C#N)cc(C)c1Oc1nc(NC2CCN(Cc3ccc(F)cc3)CC2)nc2sccc12	–	–	–	–	22.6	150	30.4	152	36.3	123	19.7	127	39	5.84	279	–
Cc1cc(/C=C/C#N)cc(C)c1Oc1nc(NC2CCN(Cc3ccc(S(N)(=O)=O)cc3)CC2)nc2ccsc12	1220	860	> 5.53	–	–	–	–	–	–	–	–	–	–	–	–	IC50 [8]: 107 nM; IC50 [9]: 149 nM; IC50 [10]: 301 nM; IC50 [11]: 101 nM; IC50 [12]: 99 nM; IC50 [13]: 350 nM; IC50 [14]: 191 nM
Cc1cc(/C=C/C#N)cc(C)c1Oc1nc(NC2CCN(Cc3ccc(C(N)=O)cc3)CC2)nc2sccc12	–	–	–	–	4.99	66.9	6.11	27.1	12.8	9.24	5.92	15.1	53	3.54	597	–

From ChEMBL document CHEMBL4354878, “Structure-Based Bioisosterism Yields HIV-1 NNRTIs with Improved Drug-Resistance Profiles and Favorable Pharmacokinetic Properties” (J Med Chem, 2020)
